Molecular target: human SPR (Homo sapiens (Human), UniProt P35270)
Experiment: Evaluation Example 2: Measurement of human SPR inhibitory activity (seven concentrations, sepiapterin absorbance at 420 nm)
Type: biochemical
Settings: Evaluation Example 2, seven concentrations 0.14 nM to 100 nM, 240 minutes at room temperature, read-out: IC50
Outline: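 Reactions ran 240 min at room temperature in 100 mM Tris-HCl pH 7.5 with 0.01% BSA. They contained tag-cleaved, E. coli-expressed full-length human SPR (diluted to 150 ng/mL), seven compound concentrations from 0.14 to 100 nM, and sepiapterin/NADPH added as a 120 μM/160 μM solution. Inhibition was calculated from sepiapterin absorbance at 420 nm.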

Sequence of human SPR (P35270 whole entry): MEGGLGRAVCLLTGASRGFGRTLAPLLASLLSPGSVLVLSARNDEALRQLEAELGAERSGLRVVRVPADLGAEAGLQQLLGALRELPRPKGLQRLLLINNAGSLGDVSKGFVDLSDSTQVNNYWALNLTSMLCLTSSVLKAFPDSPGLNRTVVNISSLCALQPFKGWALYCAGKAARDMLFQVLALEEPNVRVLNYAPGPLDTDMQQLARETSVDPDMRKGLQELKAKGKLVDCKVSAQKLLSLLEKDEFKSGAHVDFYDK

Compound | IC50
CO[C@H]1CCN(C(=O)/C=C/c2c(C)nn3c(O)c(C(=O)NC4CC4)c(=O)n(CC(C)C)c23)C1 [compound 577, (S,E)-N-Cyclopropyl-7-hydroxy-4-isobutyl-3-(3-(3-methoxypyrrolidin-1-yl)-3-oxoprop-1-en-1-yl)-2-methyl-5-oxo-4,5-dihydropyrazolo[1,5-a]pyrimidine-6-carboxamide] | 1.1 nM
CO[C@@H]1CCN(C(=O)/C=C/c2c(C)nn3c(O)c(C(=O)NC4CC4)c(=O)n(CC(C)C)c23)C1 [compound 578, (R,E)-N-Cyclopropyl-7-hydroxy-4-isobutyl-3-(3-(3-methoxypyrrolidin-1-yl)-3-oxoprop-1-en-1-yl)-2-methyl-5-oxo-4,5-dihydropyrazolo[1,5-a]pyrimidine-6-carboxamide] | 0.9 nM
Cc1nn2c(O)c(C(=O)NC3CC3)c(=O)n(CC(C)C)c2c1/C=C/C(=O)N1CCC(F)(F)CC1 [compound 579, (E)-N-Cyclopropyl-3-(3-(4,4-difluoropiperidin-1-yl)-3-oxoprop-1-en-1-yl)-7-hydroxy-4-isobutyl-2-methyl-5-oxo-4,5-dihydropyrazolo[1,5-a]pyrimidine-6-carboxamide] | 0.87 nM
Cc1nn2c(O)c(C(=O)NC3CC3)c(=O)n(CC(C)C)c2c1/C=C/C(=O)N1CCC[C@@H]1C [compound 580, (S,E)-N-Cyclopropyl-7-hydroxy-4-isobutyl-2-methyl-3-(3-(2-methylpyrrolidin-1-yl)-3-oxoprop-1-en-1-yl)-5-oxo-4,5-dihydropyrazolo[1,5-a]pyrimidine-6-carboxamide] | 0.96 nM
Cc1nn2c(O)c(C(=O)NC3CC3)c(=O)n(CC(C)C)c2c1/C=C/C(=O)N1CCC[C@H]1C [compound 581, (R,E)-N-Cyclopropyl-7-hydroxy-4-isobutyl-2-methyl-3-(3-(2-methylpyrrolidin-1-yl)-3-oxoprop-1-en-1-yl)-5-oxo-4,5-dihydropyrazolo[1,5-a]pyrimidine-6-carboxamide] | 1.09 nM
Cc1nn2c(O)c(C(=O)NC3CC3)c(=O)n(CC(C)(C)C)c2c1/C=C/C(=O)N1CCOCC1 [compound 582, (E)-N-Cyclopropyl-7-hydroxy-2-methyl-3-(3-morpholino-3-oxoprop-1-en-1-yl)-4-neopentyl-5-oxo-4,5-dihydropyrazolo[1,5-a]pyrimidine-6-carboxamide] | 0.63 nM
Cc1nn2c(O)c(C(=O)NC3CC3)c(=O)n(CC(C)(C)C)c2c1/C=C/C1CCOCC1 [compound 584, (E)-N-Cyclopropyl-7-hydroxy-2-methyl-4-neopentyl-5-oxo-3-(2-(tetrahydro-2H-pyran-4-yl)vinyl)-4,5-dihydropyrazolo[1,5-a]pyrimidine-6-carboxamide] | 1.2 nM
CNc1nn2c(O)c(C(=O)NC3CC3)c(=O)n(CC3(C)CCOCC3)c2c1/C=C/C1CCOCC1 [compound 585, (E)-N-Cyclopropyl-7-hydroxy-2-(methylamino)-4-((4-methyltetrahydro-2H-pyran-4-yl)methyl)-5-oxo-3-(2-(tetrahydro-2H-pyran-4-yl)vinyl)-4,5-dihydropyrazolo[1,5-a]pyrimidine-6-carboxamide] | 1.23 nM
CCc1nn2c(O)c(C(=O)NC3CC3)c(=O)n(CC(C)C)c2c1/C=C/C(=O)N1CCOCC1 [compound 586, (E)-N-Cyclopropyl-2-ethyl-7-hydroxy-4-isobutyl-3-(3-morpholino-3-oxoprop-1-en-1-yl)-5-oxo-4,5-dihydropyrazolo[1,5-a]pyrimidine-6-carboxamide] | 0.99 nM
CC(C)Cn1c(=O)c(C(=O)NC2CC2)c(O)n2ncc(/C=C/C(=O)N3CCC[C@H]3C(=O)N(C)C)c12 [compound 587, (S,E)-N-Cyclopropyl-3-(3-(2-(dimethylcarbamoyl)pyrrolidin-1-yl)-3-oxoprop-1-en-1-yl)-7-hydroxy-4-isobutyl-5-oxo-4,5-dihydropyrazolo[1,5-a]pyrimidine-6-carboxamide] | 1.37 nM
CC(C)Cn1c(=O)c(C(=O)NC2CC2)c(O)n2ncc(/C=C/C(=O)N3CCC[C@@H]3C(C)(C)O)c12 [compound 589, (R,E)-N-Cyclopropyl-7-hydroxy-3-(3-(2-(2-hydroxypropan-2-yl)pyrrolidin-1-yl)-3-oxoprop-1-en-1-yl)-4-isobutyl-5-oxo-4,5-dihydropyrazolo[1,5-a]pyrimidine-6-carboxamide] | 1.34 nM
CC(C)Cn1c(=O)c(C(=O)NC2CC2)c(O)n2ncc(/C=C/C(=O)N3[C@H](C)CC[C@H]3C)c12 [compound 590, N-Cyclopropyl-3-((E)-3-((2R,5R)-2,5-dimethylpyrrolidin-1-yl)-3-oxoprop-1-en-1-yl)-7-hydroxy-4-isobutyl-5-oxo-4,5-dihydropyrazolo[1,5-a]pyrimidine-6-carboxamide] | 1.09 nM
CC(C)Cn1c(=O)c(C(=O)NC2CC2)c(O)n2ncc(/C=C/C(=O)N3[C@@H](C)CC[C@@H]3C)c12 [compound 591, N-Cyclopropyl-3-((E)-3-((2S,5S)-2,5-dimethylpyrrolidin-1-yl)-3-oxoprop-1-en-1-yl)-7-hydroxy-4-isobutyl-5-oxo-4,5-dihydropyrazolo[1,5-a]pyrimidine-6-carboxamide] | 1.29 nM
CC(C)Cn1c(=O)c(C(=O)NC2CC2)c(O)n2ncc(/C=C/C(=O)N3[C@H](C)CC[C@@H]3C)c12 [compound 592, N-Cyclopropyl-3-((E)-3-(cis-2,5-dimethylpyrrolidin-1-yl)-3-oxoprop-1-en-1-yl)-7-hydroxy-4-isobutyl-5-oxo-4,5-dihydropyrazolo[1,5-a]pyrimidine-6-carboxamide] | 1.46 nM
CC(C)Cn1c(=O)c(C(=O)NC2CC2)c(O)n2ncc(/C=C/C(=O)N3CCc4cccnc43)c12 [compound 594, (E)-N-Cyclopropyl-3-(3-(2,3-dihydro-1H-pyrrolo[2,3-b]pyridin-1-yl)-3-oxoprop-1-en-1-yl)-7-hydroxy-4-isobutyl-5-oxo-4,5-dihydropyrazolo[1,5-a]pyrimidine-6-carboxamide] | 2.01 nM
CC(C)Cn1c(=O)c(C(=O)NC2CC2)c(O)n2ncc(/C=C/C(=O)N3[C@H](C)CCC[C@@H]3C)c12 [compound 597, N-Cyclopropyl-3-((E)-3-(cis-2,6-dimethylpiperidin-1-yl)-3-oxoprop-1-en-1-yl)-7-hydroxy-4-isobutyl-5-oxo-4,5-dihydropyrazolo[1,5-a]pyrimidine-6-carboxamide] | 1.62 nM
CC(C)Cn1c(=O)c(C(=O)NC2CC2)c(O)n2ncc(/C=C/C(=O)N3CC[C@H](C(C)(C)O)C3)c12 [compound 598, (S,E)-N-Cyclopropyl-7-hydroxy-3-(3-(3-(2-hydroxypropan-2-yl)pyrrolidin-1-yl)-3-oxoprop-1-en-1-yl)-4-isobutyl-5-oxo-4,5-dihydropyrazolo[1,5-a]pyrimidine-6-carboxamide] | 1.2 nM
CC(C)Cn1c(=O)c(C(=O)NC2CC2)c(O)n2ncc(/C=C/C(=O)N3CCC[C@@H]3C(C)C)c12 [compound 599, (R,E)-N-Cyclopropyl-7-hydroxy-4-isobutyl-3-(3-(2-isopropylpyrrolidin-1-yl)-3-oxoprop-1-en-1-yl)-5-oxo-4,5-dihydropyrazolo[1,5-a]pyrimidine-6-carboxamide] | 1.27 nM
CC(C)Cn1c(=O)c(C(=O)NC2CC2)c(O)n2ncc(/C=C/C(=O)N3CCC[C@H]3C(C)C)c12 [compound 600, (S,E)-N-Cyclopropyl-7-hydroxy-4-isobutyl-3-(3-(2-isopropylpyrrolidin-1-yl)-3-oxoprop-1-en-1-yl)-5-oxo-4,5-dihydropyrazolo[1,5-a]pyrimidine-6-carboxamide] | 1.47 nM
CC(C)Cn1c(=O)c(C(=O)NC2CC2)c(O)n2ncc(/C=C/C(=O)N3CCC[C@@H]3C(F)F)c12 [compound 601, (R,E)-N-Cyclopropyl-3-(3-(2-(difluoromethyl)pyrrolidin-1-yl)-3-oxoprop-1-en-1-yl)-7-hydroxy-4-isobutyl-5-oxo-4,5-dihydropyrazolo[1,5-a]pyrimidine-6-carboxamide] | 1.08 nM
CC(C)Cn1c(=O)c(C(=O)NC2CC2)c(O)n2ncc(/C=C/C(=O)N3CCOC[C@H]3c3ccccc3)c12 [compound 602, (R,E)-N-Cyclopropyl-7-hydroxy-4-isobutyl-5-oxo-3-(3-oxo-3-(3-phenylmorpholino)prop-1-en-1-yl)-4,5-dihydropyrazolo[1,5-a]pyrimidine-6-carboxamide] | 1.14 nM
CC(C)Cn1c(=O)c(C(=O)NC2CC2)c(O)n2ncc(/C=C/C(=O)N3CCC[C@H]3c3cccnc3)c12 [compound 603, (S,E)-N-Cyclopropyl-7-hydroxy-4-isobutyl-5-oxo-3-(3-oxo-3-(2-(pyridin-3-yl)pyrrolidin-1-yl)prop-1-en-1-yl)-4,5-dihydropyrazolo[1,5-a]pyrimidine-6-carboxamide] | 1.1 nM
CC(C)Cn1c(=O)c(C(=O)NC2CC2)c(O)n2ncc(/C=C/C(=O)N(C)Cc3ccn(C)n3)c12 [compound 604, (E)-N-Cyclopropyl-7-hydroxy-4-isobutyl-3-(3-(methyl((1-methyl-1H-pyrazol-3-yl)methyl)amino)-3-oxoprop-1-en-1-yl)-5-oxo-4,5-dihydropyrazolo[1,5-a]pyrimidine-6-carboxamide] | 0.92 nM
CC[C@H]1CCCN1C(=O)/C=C/c1cnn2c(O)c(C(=O)NC3CC3)c(=O)n(CC(C)C)c12 [compound 605, (S,E)-N-Cyclopropyl-3-(3-(2-ethylpyrrolidin-1-yl)-3-oxoprop-1-en-1-yl)-7-hydroxy-4-isobutyl-5-oxo-4,5-dihydropyrazolo[1,5-a]pyrimidine-6-carboxamide] | 1.2 nM
CC(C)Cn1c(=O)c(C(=O)NC2CC2)c(O)n2ncc(/C=C/C(=O)N3CCOC[C@@H]3c3ccccc3)c12 [compound 606, (S,E)-N-Cyclopropyl-7-hydroxy-4-isobutyl-5-oxo-3-(3-oxo-3-(3-phenylmorpholino)prop-1-en-1-yl)-4,5-dihydropyrazolo[1,5-a]pyrimidine-6-carboxamide] | 1.32 nM

From patent US20240092784A1, “CONDENSED HETEROCYCLIC COMPOUND” (NISSAN CHEMICAL CORPORATION, priority 2020, published 2024)
